Data: paper PMC12259270, “Sensory neuron–expressed FGF13 controls nociceptive signaling in diabetic neuropathy models” (The Journal of Clinical Investigation, 2025)
“And” between values parts separate entries of the source, which are not always exact repeats. Identical values can stand only once. Residues, ends and D or L forms follow the SMILES beside them. *: point of attachment. NHPh = c1ccc(N*)cc1

Molecular target: T1, human Nav1.7 (Homo sapiens, UniProt Q15858)
T1 construct: expressed in transfected cells; host or cells: HEK293 stably expressing human Nav1.7
Test: Whole-cell patch-clamp, HEK293 cells stably expressing human Nav1.7 with GFP or FGF13-GFP
Assay type: cell-based
Set-up: Nav1.7 repriming time course, Mean / Figure 4I, Mean versus Time (ms): unit not given here
Settings: for Activation / LTI, 2nd Pulse / LTI, 3rd Pulse / LTI, 4th Pulse / Peak Density / Steady-State inactivation / Tau (τ): HEK293 Nav1.7
Procedure: Whole-cell patch clamp electrophysiology
HEK293-Nav1.7 cells, HEK293 stably expressing human Nav1.6 (HEK-Nav1.6), HEK293 stably expressing human Nav1.5 (HEK-Nav1.5), human hIPSC-derived sensory neurons (RealDRGTM from Anatomic Incorporated 1020F1-1M) and donor-derived DRG neurons were plated at low density on glass coverslips and processed for whole-cell patch clamp electrophysiology in voltage-clamp and/or current clamp mode. Whole-cell patch electrophysiological experiments were conducted following previously published studies (26). Current densities were obtained by dividing INa amplitude by membrane capacitance. Current –voltage relationships were generated by plotting current density as a function of the […]. Conductance (G Na) was calculated by the […]
where INa is the current amplitude at voltage Vm, and Erev is the Na+ reversal potential.
Activation curves were derived by plotting normalized GNa as a function of test potential and fitted using […]
Where GNa,Max is the maximum conductance, Va is the membrane potential of half-maximal activation, Em is the membrane voltage and k is the slope factor. For steady -state inactivation, normalized current amplitude (INa/INa,Max) at the test potential was plotted as a function of prepulse potential (Vm) and fitted using the […]
Where Vh is the potential of half-maximal inactivation, E m is the membrane voltage, and k is the slope factor.
Transient INa inactivation decay was estimated with the standard exponential equation. Inactivation time constant (tau, τ) was fitted with the following equation: […]
where I(t) is the amplitude of the current at time t and Iss is the steady-state current during a single voltage-step.
The goodness of fitting was determined by correlation coefficient (R), and the cutoff of R was set at 0.85. To observe effects on long-term inactivation (LTI), a four-step protocol was employed during which cells were subjected to four 0 mV, 20 ms depolarization pulses separated by −90 mV, 40 ms recovery intervals. To control for various cell sizes, the current densities were calculated by dividing INa peak current amplitude/membrane capacitance (Cm). To represent the fraction of channels entering into LTI, the peak INa observed during depolarization cycles 2-4 was normalized to the peak INa observed during depolarization cycle 1 (INa/INa,Cycle 1) and plotted as a function of the depolarization cycle.
The cumulative (frequency-dependent) use-dependency was determined by applying 20 pulses with a depolarization to −10 mV (50 ms duration) and 50 ms recovery intervals with a train of 20 pulses at 10 Hz from a holding potential at -70 mV. The current pulses were normalized to the first reco rded pulse and the currents at the 2nd to 20th pulses were compared. The same train was used to record use-dependency at various frequencies […]
The rate of recovery from inactivation was recorded at -80 mV with a standard repriming voltage protocol.
The cells were prepulsed to -20 mV for 20 ms to inactivate all currents, then driven back to the recovery potential (Vrec) for increasing recovery durations before the test pulse to 0 mV. The maximum pulse rate was 0.5 Hz. The […]
follows previous publications (16). The time constants were estimated from single exponential decay to time courses measured at recovery potentials ranging from -140 to -60 mV with the protocol as mentioned above.
Electrophysiological Recordings
HEK293 cells: Electrophysiological recordings in HEK293 stably expressing Nav1.7 (HEK-Nav1.7), Nav1.5 (HEK-Nav1.5) or Nav1.6 (HEK-Nav1.6) were performed at room temperature using a MultiClamp 700B or an Axopatch 200B amplifier (Molecular Devices) after incubating coverslips for 60 minutes either with 0.1% DMSO or 50 μM PW164 or ZL192 in the extracellular solution. The composition of recording solutions consisted of the […]
following salts: extracellular (mM): 140 NaCl, 3 KCl, 1 MgCl2, 1 CaCl2, 10 HEPES, 10 glucose, pH 7.3; […]
intracellular (mM): 130 CH3O3 SCs, 1 EGTA, 10 NaCl, 10 HEPES, pH 7.3. […]

[1] = Nav1.7 + FGF13-GFP, Steps 1, N 10
[2] = Nav1.7 + FGF13-GFP, Steps 3, N 10

T1 sequence (Q92913 1-192 partner limits assumed): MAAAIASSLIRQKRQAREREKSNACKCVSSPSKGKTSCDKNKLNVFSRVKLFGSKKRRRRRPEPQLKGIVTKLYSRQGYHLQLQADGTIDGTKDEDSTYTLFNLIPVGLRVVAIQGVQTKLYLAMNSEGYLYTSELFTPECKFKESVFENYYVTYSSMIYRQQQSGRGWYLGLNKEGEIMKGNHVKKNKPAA
T1 sequence (Q15858 1-1977 isoform Q15858-3): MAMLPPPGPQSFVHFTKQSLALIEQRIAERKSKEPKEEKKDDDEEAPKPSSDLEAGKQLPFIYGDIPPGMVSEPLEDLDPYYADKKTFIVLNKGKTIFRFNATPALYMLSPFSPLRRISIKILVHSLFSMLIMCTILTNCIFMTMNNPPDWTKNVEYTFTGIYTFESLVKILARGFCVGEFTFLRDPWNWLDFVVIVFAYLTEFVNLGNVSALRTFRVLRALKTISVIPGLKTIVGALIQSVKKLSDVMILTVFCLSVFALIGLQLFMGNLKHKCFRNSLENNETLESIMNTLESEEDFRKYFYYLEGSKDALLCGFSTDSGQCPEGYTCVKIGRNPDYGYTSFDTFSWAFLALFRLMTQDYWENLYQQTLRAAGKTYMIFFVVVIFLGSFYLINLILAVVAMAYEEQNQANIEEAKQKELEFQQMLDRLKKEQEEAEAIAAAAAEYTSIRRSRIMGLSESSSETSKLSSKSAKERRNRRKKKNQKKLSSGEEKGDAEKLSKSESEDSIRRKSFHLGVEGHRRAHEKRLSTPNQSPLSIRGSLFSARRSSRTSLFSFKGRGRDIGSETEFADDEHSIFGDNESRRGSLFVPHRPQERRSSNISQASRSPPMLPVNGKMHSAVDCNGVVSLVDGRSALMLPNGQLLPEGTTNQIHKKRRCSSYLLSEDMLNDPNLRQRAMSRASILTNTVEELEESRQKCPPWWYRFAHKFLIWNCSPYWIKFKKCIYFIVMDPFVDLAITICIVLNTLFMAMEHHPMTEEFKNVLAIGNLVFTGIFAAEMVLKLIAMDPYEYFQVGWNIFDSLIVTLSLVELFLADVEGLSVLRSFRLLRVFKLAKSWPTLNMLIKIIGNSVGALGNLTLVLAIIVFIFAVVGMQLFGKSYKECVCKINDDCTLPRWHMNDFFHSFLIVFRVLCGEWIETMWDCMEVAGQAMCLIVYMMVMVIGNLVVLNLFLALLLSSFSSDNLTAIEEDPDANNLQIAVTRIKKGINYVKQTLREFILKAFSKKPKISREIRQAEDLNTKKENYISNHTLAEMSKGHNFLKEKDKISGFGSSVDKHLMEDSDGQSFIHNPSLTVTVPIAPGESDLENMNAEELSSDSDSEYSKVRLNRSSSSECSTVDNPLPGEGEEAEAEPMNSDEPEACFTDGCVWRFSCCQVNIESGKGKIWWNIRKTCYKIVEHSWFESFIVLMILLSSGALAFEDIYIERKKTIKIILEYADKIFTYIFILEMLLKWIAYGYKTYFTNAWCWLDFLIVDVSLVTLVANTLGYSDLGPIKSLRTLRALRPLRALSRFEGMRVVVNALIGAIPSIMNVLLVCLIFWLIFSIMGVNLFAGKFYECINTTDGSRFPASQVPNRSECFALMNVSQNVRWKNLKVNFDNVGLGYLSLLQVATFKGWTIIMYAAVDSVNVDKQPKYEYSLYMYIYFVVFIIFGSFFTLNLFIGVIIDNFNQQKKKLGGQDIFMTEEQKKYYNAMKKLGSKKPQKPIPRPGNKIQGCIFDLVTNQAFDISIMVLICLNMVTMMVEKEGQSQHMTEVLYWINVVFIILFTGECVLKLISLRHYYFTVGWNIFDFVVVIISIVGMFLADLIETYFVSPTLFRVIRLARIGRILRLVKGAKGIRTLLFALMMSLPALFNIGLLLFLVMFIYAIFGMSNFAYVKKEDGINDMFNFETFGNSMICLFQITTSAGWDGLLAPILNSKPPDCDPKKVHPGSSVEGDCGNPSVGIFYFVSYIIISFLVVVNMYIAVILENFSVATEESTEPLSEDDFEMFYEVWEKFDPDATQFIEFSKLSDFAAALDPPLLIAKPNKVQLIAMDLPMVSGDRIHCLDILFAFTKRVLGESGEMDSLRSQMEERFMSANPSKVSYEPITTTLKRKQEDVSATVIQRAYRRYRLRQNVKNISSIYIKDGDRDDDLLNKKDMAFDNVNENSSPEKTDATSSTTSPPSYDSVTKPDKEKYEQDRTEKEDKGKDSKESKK

## CC(=O)N[C@@H](Cc1ccccc1)C(=O)N[C@@H](CC(C)C)C(=O)N1CCC[C@H]1C(=O)N[C@@H](CCCCN)C(=O)Nc1ccccc1 [ZL192] (Ac-FLPK-NHPh)
FGF13-GFP + ZL192 50 μM
  Activation: −26.0 ± 0.8 mV
  LTI, 2nd Pulse: −69.72 ± 5.21 % maximal Na+ current
  LTI, 3rd Pulse: −60.33 ± 5.60 % maximal Na+ current
  LTI, 4th Pulse: −59.34 ± 4.68 % maximal Na+ current
  Peak Density: −139.7 ± 12.3 pA/pF
  Steady-State inactivation: −66.7 ± 2.6 mV
  Tau (τ): 1.2 ± 0.06 ms
GFP + ZL192 50 μM
  Activation: −25.7 ± 0.8 mV
  LTI, 2nd Pulse: −67.94 ± 3.77 % maximal Na+ current
  LTI, 3rd Pulse: −62.35 ± 57.35 % maximal Na+ current
  LTI, 4th Pulse: −60.93 ± 3.90 % maximal Na+ current
  Peak Density: −73.5 ± 8.1 pA/pF
  Steady-State inactivation: −82.8 ± 1.1 mV
  Tau (τ): 1.3 ± 0.1 ms
HEK-Nav1.7 coexpressing FGF13, Fig 4D, read-out: EC50, potentiation of INa
  EC50: 8.5 ± 0.9 µM
Nav1.7 + FGF13-GFP
  Current density pA/pF (Figure 4D), individual cells: -168.188 pA/pF and -158.115 pA/pF and -119.568 pA/pF and -127.538 pA/pF and -145.958 pA/pF and -170.525 pA/pF and -75.8621 pA/pF and -128.86 pA/pF and -208.183 pA/pF and -94.6899 pA/pF
Nav1.7 + FGF13-GFP, Log (conc(M) -4)
  pA/pF Dose response (Figure 4D), individual cells: -162.222 pA/pF and -131.216 pA/pF and -115.311 pA/pF and -179.051 pA/pF and -125.271 pA/pF and -135.274 pA/pF
Nav1.7 + FGF13-GFP, Log (conc(M) -4.12)
  pA/pF Dose response (Figure 4D), individual cells: -133.535 pA/pF and -142.569 pA/pF and -148.889 pA/pF
Nav1.7 + FGF13-GFP, Log (conc(M) -4.22)
  pA/pF Dose response (Figure 4D), individual cells: -94.6899 pA/pF and -168.188 pA/pF and -158.115 pA/pF and -119.568 pA/pF and -127.538 pA/pF and -145.958 pA/pF and -170.525 pA/pF and -75.8621 pA/pF and -128.86 pA/pF and -208.183 pA/pF
Nav1.7 + FGF13-GFP, Log (conc(M) -4.6)
  pA/pF Dose response (Figure 4D), individual cells: -142.47 pA/pF and -131.114 pA/pF and -147.185 pA/pF and -132.461 pA/pF and -139.907 pA/pF and -150.76 pA/pF and -140.066 pA/pF
Nav1.7 + FGF13-GFP, Log (conc(M) -4.82)
  pA/pF Dose response (Figure 4D), individual cells: -154.895 pA/pF and -103.016 pA/pF and -135.94 pA/pF and -128.008 pA/pF and -135.582 pA/pF and -110.637 pA/pF and -137.656 pA/pF (2×)
Nav1.7 + FGF13-GFP, Log (conc(M) -5)
  pA/pF Dose response (Figure 4D), individual cells: -99.4552 pA/pF and -132.222 pA/pF and -121.216 pA/pF and -111.311 pA/pF and -169.051 pA/pF and -139.271 pA/pF and -105.274 pA/pF
Nav1.7 + FGF13-GFP, Log (conc(M) -5.5)
  pA/pF Dose response (Figure 4D), individual cells: -112.13 pA/pF and -130.035 pA/pF and -105.009 pA/pF and -123.737 pA/pF and -114.192 pA/pF and -90.2752 pA/pF and -117.316 pA/pF
Nav1.7 + FGF13-GFP, Log (conc(M) -6)
  pA/pF Dose response (Figure 4D), individual cells: -149.506 pA/pF and -142.879 pA/pF and -66.945 pA/pF and -161.516 pA/pF and -59.6444 pA/pF and -67.5751 pA/pF and -70.501 pA/pF and -91.4611 pA/pF and -141.024 pA/pF and -68.796 pA/pF and -57.939 pA/pF
[1]
  Figure 4G, Mean per step (normalized): 1
  Figure 4H, Mean per step (step 1 = 100): 100
Nav1.7 + FGF13-GFP, Steps 2, N 10
  Figure 4H, Mean per step (step 1 = 100): 69.7172
[2]
  Figure 4G, Mean per step (normalized): 0.9185
  Figure 4H, Mean per step (step 1 = 100): 60.3376
Nav1.7 + FGF13-GFP, Steps 4, N 10
  Figure 4H, Mean per step (step 1 = 100): 59.3427
Nav1.7 + FGF13-GFP, Steps 5, N 10
  Figure 4G, Mean per step (normalized): 0.9162
Nav1.7 + FGF13-GFP, Steps 10, N 10
  Figure 4G, Mean per step (normalized): 0.8818
Nav1.7 + FGF13-GFP, Steps 15, N 10
  Figure 4G, Mean per step (normalized): 0.8857
Nav1.7 + FGF13-GFP, Steps 20, N 10
  Figure 4G, Mean per step (normalized): 0.8672
Nav1.7 + FGF13-GFP, Time (ms) 2, N 7
  Figure 4I, Mean versus Time (ms): -2.382
Nav1.7 + FGF13-GFP, Time (ms) 5, N 7
  Figure 4I, Mean versus Time (ms): -10.2316
Nav1.7 + FGF13-GFP, Time (ms) 9, N 7
  Figure 4I, Mean versus Time (ms): -21.032
Nav1.7 + FGF13-GFP, Time (ms) 17, N 7
  Figure 4I, Mean versus Time (ms): -28.22
Nav1.7 + FGF13-GFP, Time (ms) 33, N 7
  Figure 4I, Mean versus Time (ms): -35.2152
Nav1.7 + FGF13-GFP, Time (ms) 65, N 7
  Figure 4I, Mean versus Time (ms): -41.6453
Nav1.7 + FGF13-GFP, Time (ms) 129, N 7
  Figure 4I, Mean versus Time (ms): -47.08
Nav1.7 + FGF13-GFP, Time (ms) 257, N 7
  Figure 4I, Mean versus Time (ms): -58.7924
Nav1.7 + FGF13-GFP, Time (ms) 513, N 7
  Figure 4I, Mean versus Time (ms): -60.0808
Nav1.7 + FGF13-GFP, Time (ms) 1025, N 7
  Figure 4I, Mean versus Time (ms): -61.473
Nav1.7 + FGF13-GFP, Time (ms) 2000, N 7
  Figure 4I, Mean versus Time (ms): -62.66
Nav1.7 + GFP
  Current density pA/pF (Figure 4D), individual cells: -42.7131 pA/pF and -116.886 pA/pF and -86.2507 pA/pF and -55.3628 pA/pF and -87.5203 pA/pF and -98.7467 pA/pF and -44.4757 pA/pF and -64.4298 pA/pF and -57.1752 pA/pF and -107.666 pA/pF and -47.813 pA/pF
Nav1.7 + GFP, Steps 1, N 9
  Figure 4H, Mean per step (step 1 = 100): 100
Nav1.7 + GFP, Steps 1, N 10
  Figure 4G, Mean per step (normalized): 1
Nav1.7 + GFP, Steps 2, N 9
  Figure 4H, Mean per step (step 1 = 100): 67.9415
Nav1.7 + GFP, Steps 3, N 9
  Figure 4H, Mean per step (step 1 = 100): 62.3546
Nav1.7 + GFP, Steps 3, N 10
  Figure 4G, Mean per step (normalized): 0.8342
Nav1.7 + GFP, Steps 4, N 9
  Figure 4H, Mean per step (step 1 = 100): 60.931
Nav1.7 + GFP, Steps 5, N 10
  Figure 4G, Mean per step (normalized): 0.7578
Nav1.7 + GFP, Steps 10, N 10
  Figure 4G, Mean per step (normalized): 0.7548
Nav1.7 + GFP, Steps 15, N 10
  Figure 4G, Mean per step (normalized): 0.7445
Nav1.7 + GFP, Steps 20, N 10
  Figure 4G, Mean per step (normalized): 0.751
Nav1.7 + GFP, Time (ms) 2, N 6
  Figure 4I, Mean versus Time (ms): -1.684
Nav1.7 + GFP, Time (ms) 5, N 6
  Figure 4I, Mean versus Time (ms): -3.032
Nav1.7 + GFP, Time (ms) 9, N 6
  Figure 4I, Mean versus Time (ms): -5.9665
Nav1.7 + GFP, Time (ms) 17, N 6
  Figure 4I, Mean versus Time (ms): -10.1843
Nav1.7 + GFP, Time (ms) 33, N 6
  Figure 4I, Mean versus Time (ms): -13.6758
Nav1.7 + GFP, Time (ms) 65, N 6
  Figure 4I, Mean versus Time (ms): -16.716
Nav1.7 + GFP, Time (ms) 129, N 6
  Figure 4I, Mean versus Time (ms): -20.6484
Nav1.7 + GFP, Time (ms) 257, N 6
  Figure 4I, Mean versus Time (ms): -23.8114
Nav1.7 + GFP, Time (ms) 513, N 6
  Figure 4I, Mean versus Time (ms): -25.3409
Nav1.7 + GFP, Time (ms) 1025, N 6
  Figure 4I, Mean versus Time (ms): -26.7193
Nav1.7 + GFP, Time (ms) 2000, N 6
  Figure 4I, Mean versus Time (ms): -29.0414
